Where two headings read alike, the source gives them in different places.

The text below walks through data of paper PMC4891385 (Clinical Drug Investigation, 2016).

The conditions of data set [1]: furosemide 40 mg with lesinurad 400 mg vs alone.
Substrate in data set [2]: O=C(O)CSc1nnc(Br)n1-c1ccc(C2CC2)c2ccccc12
Kind of data set: [14C]-lesinurad uptake, substrate test, hOCT1 MDCK-II cells. Type of data set: in vitro ADME, human. The following applies: other: lesinurad as substrate of OCT1.

Substrate in data set [3]: O=C(O)CSc1nnc(Br)n1-c1ccc(C2CC2)c2ccccc12
The data set is described as follows: [14C]-lesinurad uptake, substrate test, OAT3 oocytes. The following applies: other: lesinurad as substrate of OAT3. Type of data set: in vitro ADME.

The mark [4] stands for this setting: atorvastatin 40 mg with lesinurad 200 mg vs alone.

For the molecule `CC(C)c1c(C(=O)Nc2ccccc2O)c(-c2ccccc2)c(-c2ccc(F)cc2)n1CCC(O)CC(O)CC(=O)O` (stereo not drawn) [2-OH-atorvastatin], under setting [4], the “increase in AUC∞” value amounted to 20% and the “increase in Cmax” value is given as 16%. The “increase in Cmax” value (atorvastatin 40 mg with lesinurad 400 mg vs alone) is 17–34%.

Turning to `NS(=O)(=O)c1cc(C(=O)O)c(NCc2ccco2)cc1Cl` [Furosemide, furosemide], the “reduction of amount excreted in urine” value in data set [1] is recorded as “approximately 25%”.

B1: OCT1 (Homo sapiens) (protein)
chain: MPTVDDILEQVGESGWFQKQAFLILCLLSAAFAPICVGIVFLGFTPDHHCQSPGVAELSQRCGWSPAEELNYTVPGLGPAGEAFLGQCRRYEVDWNQSALSCVDPLASLATNRSHLPLGPCQDGWVYDTPGSSIVTEFNLVCADSWKLDLFQSCLNAGFLFGSLGVGYFADRFGRKLCLLGTVLVNAVSGVLMAFSPNYMSMLLFRLLQGLVSKGNWMAGYTLITEFVGSGSRRTVAIMYQMAFTVGLVALTGLAYALPHWRWLQLAVSLPTFLFLLYYWCVPESPRWLLSQKRNTEAIKIMDHIAQKNGKLPPADLKMLSLEEDVTEKLSPSFADLFRTPRLRKRTFILMYLWFTDSVLYQGLILHMGATSGNLYLDFLYSALVEIPGAFIALITIDRVGRIYPMAMSNLLAGAACLVMIFISPDLHWLNIIIMCVGRMGITIAIQMICLVNAELYPTFVRNLGVMVCSSLCDIGGIITPFIVFRLREVWQALPLILFAVLGLLAAGVTLLLPETKGVALPETMKDAENLGRKAKPKENTIYLKVQTSEPSGT
The Km is the concentration of substrate that gives half-maximal velocity. Regarding B1, the Km in data set [2] is reported as 20 µM.

B2: OAT3 (Homo sapiens) (protein)
chain: MTFSEILDRVGSMGHFQFLHVAILGLPILNMANHNLLQIFTAATPVHHCRPPHNASTGPWVLPMGPNGKPERCLRFVHPPNASLPNDTQRAMEPCLDGWVYNSTKDSIVTEWDLVCNSNKLKEMAQSIFMAGILIGGLVLGDLSDRFGRRPILTCSYLLLAASGSGAAFSPTFPIYMVFRFLCGFGISGITLSTVILNVEWVPTRMRAIMSTALGYCYTFGQFILPGLAYAIPQWRWLQLTVSIPFFVFFLSSWWTPESIRWLVLSGKSSKALKILRRVAVFNGKKEEGERLSLEELKLNLQKEISLAKAKYTASDLFRIPMLRRMTFCLSLAWFATGFAYYSLAMGVEEFGVNLYILQIIFGGVDVPAKFITILSLSYLGRHTTQAAALLLAGGAILALTFVPLDLQTVRTVLAVFGKGCLSSSFSCLFLYTSELYPTVIRQTGMGVSNLWTRVGSMVSPLVKITGEVQPFIPNIIYGITALLGGSAALFLPETLNQPLPETIEDLENWSLRAKKPKQEPEVEKASQRIPLQPHGPGLGSS
On to B2, for which, in data set [3], the Km turned out to be 2 µM.
